Each structure is given as a SMILES string.

The test system of test [1] is Bovine cardiac myofibrils. The test is described as follows: In vitro model of dose-dependent myofibril ATPase modulation (AC1.4, pyruvate kinase/lactate dehydrogenase-coupled ATPase assay at pCa25). Type of test: biochemical. Particulars: concentration at which ATPase activity was 1.4-fold higher than the bottom of the dose curve, mean of a minimum of two independent tests. The method, boiled down:
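Compound dilutions were premixed with myofibrils, coupling enzymes, EGTA and CaCl2, then the reaction was started with an equal volume carrying ATP (final 1 mM), NADH and PEP. ATP turnover was followed at 340 nm, and dose responses were fit to a four-parameter equation.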

The subject of test [2] is Male CD rats. The experiment in a line: Echocardiography/ultrasound protocol: fractional shortening (% FS) during intravenous infusion, MEE. Particulars: rat, formulation 40% HPbCD, corrected for rat plasma protein binding. Further details: unit not given here. It is filed as in vivo. The method, then: (§1) Formulations: A compound as disclosed herein and water were admixed together. Either 30% wt/vol or 40% wt/vol of hydroxypropyl beta-cyclodextrin (HPBCD) was added and the mixture stirred until dissolved.
(§2) Echocardiography/ultrasound protocol: Serial echocardiography was conducted with the aid of an imaging system suitable for rodent cardiac ultrasound. Male CD rats (6-10 weeks of age; 6-12 animals per group) were cannulated with a jugular vein catheter to enable delivery of test article by intravenous infusion. […] An imaging probe was fixed in position to acquire short axis (SAX), motion (M)—mode images of the left cardiac ventricle at the level of the papillary muscles. Baseline data was acquired prior to initiating test article delivery. Test article (compound as disclosed herein in a HPBCD formulation), or vehicle control, was delivered with the aid of an infusion pump connected to the jugular vein catheter. Infusion rate of test article was increased at 15 min intervals, to a maximum of 5 mL/kg/hr. Ultrasound images were acquired at 5 min intervals. Additionally whole blood (not exceeding 10 uL) was collected via a tail nick at the same 5 min intervals for subsequent exposure determination.
(§3) Whole blood samples were analyzed by protein precipitation and liquid chromatography tandem mass spectrometry (LC-MS/MS) using multiple reaction monitoring (MRM) in positive ionization mode. The lower limit of quantitation (LLOQ) in the assay was 1 ng/mL and the upper limit of quantitation (ULOQ) was 10,000 ng/mL.
Offline data analysis of the SAX M-mode ultrasound images was conducted to derive measures of left ventricular end diastolic diameter (LVEDD), left ventricular end systolic diameter (LVESD) and subsequent calculation of fractional shortening (% FS) using the following formula: % FS=((LVEDD−LVESD)/LVEDD)*100. Minimally efficacious exposure (MEE) was defined as the exposure at which a 10% increase in % FS from baseline was observed. The MEE was derived by plotting assayed exposures against % FS and using non-linear curve fitting (log(exposure) vs. % FS; variable slope, 4 parameters). Response to vehicle at each time point was averaged and all test article responses were normalized to baseline and subtracted from time matched (averaged) vehicle responses.

For test [3], the system named is Male CD rats. The test is described as follows: Pressure-volume loop (PV Loop) protocol (invasive hemodynamics): ejection fraction (% EF) during intravenous infusion, MEE. Type of test: in vivo. Also noted: unit not given here. Particulars: exposure at 10% increase in % EF from baseline, rat, corrected for rat plasma protein binding. The method, then: as §1, §2, §3
Pressure-volume loop (PV Loop) protocol (invasive hemodynamics): Left ventricular catheterization with a pressure-volume transducing catheter was applied as an alternative method to derive pharmacodynamic endpoints. A pressure volume conductance catheter was inserted via the left carotid artery and advanced into the left ventricle. The electrical signal emitted from the volume catheter was used to derive measures of relative volume at 5 min intervals. From these measures, left ventricular end diastolic volume (LVEDV) and left ventricular end systolic volume (LVESV) were derived. Ejection fraction was then derived using the following formula: % EF=((LVEDV−LVESV)/LVEDV)*100. Minimally efficacious exposure (MEE) was defined as the exposure at which a 10% increase in % EF from baseline was observed. The MEE was derived by plotting assayed exposures against % EF and using non-linear curve fitting (log(exposure) vs. % EF; variable slope, 4 parameters). Response to vehicle at each time point was averaged and all test article responses were normalized to baseline and subtracted from time matched (averaged) vehicle responses. Animal preparation, vehicle/test article delivery and blood sampling for exposure determination was as described in Echocardiography/ultrasound protocol.

Take `CS(=O)(=O)c1cccc(C(=O)N2CCC[C@@H]2C(=O)N[C@@H](c2ccc(C(F)(F)F)cc2F)C2CC2)c1` [Example 364, (R)—N—((R)-cyclopropyl(2-fluoro-4-(trifluoromethyl)phenyl)methyl)-1-(3-(methylsulfonyl)benzoyl)pyrrolidine-2-carboxamide]: in test [1], the AC1.4 is 1.04 µM. Besides, the “MEE* (unbound), minimally efficacious exposure” value (“MEE* (unbound)” below) in test [2] (Echocardiography and PV Loop (both protocols named for this value)) turned out to be 0.27.

Consider `CS(=O)(=O)c1cncc(C(=O)N2[C@@H](C(=O)N[C@@H](c3cc(F)c(C(F)(F)F)cc3F)C3CC3)C[C@H]3C[C@H]32)c1` [Example 214, (1R,3R,5R)—N—((R)-cyclopropyl(2,5-difluoro-4-(trifluoromethyl)phenyl)methyl)-2-(5-(methylsulfonyl)nicotinoyl)-2-azabicyclo[3.1.0]hexane-3-carboxamide], for which the AC1.4 in test [1] was found to be 0.4665 µM. In addition, the “MEE* (unbound)” value in test [2] (Echocardiography, exposure at 10% increase in % FS from baseline) is 0.12.

In the case of `CS(=O)(=O)c1cccc(C(=O)N2C[C@@H](F)C[C@@H]2C(=O)N[C@@H](c2ccc(C(F)(F)F)cc2F)C2CC2)c1` [Example 402, (2R,4S)—N—((R)-cyclopropyl(2-fluoro-4-(trifluoromethyl)phenyl)methyl)-4-fluoro-1-(3-(methylsulfonyl)benzoyl)pyrrolidine-2-carboxamide], the “MEE* (unbound)” value in test [3] (formulation 40% HPbCD) came out at 0.18. Also, the AC1.4 in test [1] was determined as 1.381 µM.

Regarding `N#CC1CN(S(=O)(=O)N2CCC[C@H](C(=O)N3CCC[C@@H]3C(=O)NCc3cc(F)cc(F)c3)C2)C1` [Example 287, 1-(((3S)-1-((3-cyano-1-azetidinyl)sulfonyl)-3-piperidinyl)carbonyl)-N-(3,5-difluorobenzyl)-D-prolinamide], the “MEE* (unbound)” value in test [3] (formulation 40% HPbCD) is on record as 0.47. This compound had an AC1.4 in test [1] of 0.7212 µM.

Consider `N#CC1CN(S(=O)(=O)N2CCC[C@H](C(=O)N3CCC[C@@H]3C(=O)NCc3ccc(Cl)c(Cl)c3)C2)C1` [Example 91, 1-(((3S)-1-((3-cyano-1-azetidinyl)sulfonyl)-3-piperidinyl)carbonyl)-N-(3,4-dichlorobenzyl)-D-prolinamide], for which, in test [3] (formulation 40% HPbCD), the “MEE* (unbound)” value is reported as 0.04. In test [1], the AC1.4 stood at 0.1384 µM.

Take `N#CC1CN(S(=O)(=O)N2CCN[C@H](C(=O)N3CCC[C@@H]3C(=O)NCc3ccc(C(F)(F)F)cc3F)C2)C1` [Example 200, 1-(((2S)-4-((3-cyano-1-azetidinyl)sulfonyl)-2-piperazinyl)carbonyl)-N-(2-fluoro-4-(trifluoromethyl)benzyl)-D-prolinamide]: the “MEE* (unbound)” value in test [3] (formulation 40% HPbCD) was found to be 1.02. For the same compound, the AC1.4 in test [1] was 0.4083 µM.

On to `N#CC1CN(S(=O)(=O)N2CCC[C@H](C(=O)N3CCC[C@@H]3C(=O)NCc3ccc(C(F)(F)F)cc3)C2)C1` [Example 67, 1-(((3S)-1-((3-cyano-1-azetidinyl)sulfonyl)-3-piperidinyl)carbonyl)-N-(4-(trifluoromethyl)benzyl)-D-prolinamide], for which, in test [3] (formulation 40% HPbCD pH 4 NaOH), the “MEE* (unbound)” value is 1.05. For the same compound, the AC1.4 in test [1] is 0.07786 µM.

Consider `C[C@@H](NC(=O)[C@H]1CCCN1C(=O)[C@H]1CCCN(S(=O)(=O)N2CC(C#N)C2)C1)c1ccc(F)cc1F` [Example 325, 1-(((3S)-1-((3-cyano-1-azetidinyl)sulfonyl)-3-piperidinyl)carbonyl)-N-((1R)-1-(2,4-difluorophenyl)ethyl)-D-prolinamide], for which, in test [3] (formulation 40% HPbCD), the “MEE* (unbound)” value was determined as 0.41. Besides, the AC1.4 in test [1] was 0.8883 µM.

With `N#CC1CN(S(=O)(=O)N2CCC[C@H](C(=O)N3CCC[C@@H]3C(=O)NCc3ccc(C(F)F)cc3)C2)C1` [Example 261, 1-(((3S)-1-((3-cyano-1-azetidinyl)sulfonyl)-3-piperidinyl)carbonyl)-N-(4-(difluoromethyl)benzyl)-D-prolinamide], in test [3] (formulation 40% HPbCD), the “MEE* (unbound)” value turned out to be 0.16. In test [1], this compound displayed an AC1.4 of 0.6461 µM.

The values above are taken from US11780826B2 (Amgen Inc., priority 2017, dated 2023).
